Among the data in patent US7307081B2, “Piperidine derivatives useful as CCR5 antagonists” (priority 2002, dated 2007) are IC50 values, retold here.

SMILES strings stand for the structures.

The term IC50 denotes the concentration that inhibits the measured activity by half.

In one assay the test system is HIV-1 luciferase reporter virus (ADA-Luc-FL, YU-2-Luc-FL, HxB-Luc-FL) in U87-CD4-CCR5 cells. Put plainly: Luciferase Replication Assay (HIV replication). The format is cell-based. Particulars: Human immunodeficiency virus 1, U87/CD4/CCR5, 72 h, read-out: HIV Replication (Luciferase) IC50 nM, U87-CD4-CCR5 cells, replication-competent luciferase reporter virus, cultures incubated 3 days. How it is done:
Luciferase Replication Assay:
Plasmids encoding the full length genome of HIV-1 pNL-4-Luc with the gp 120 V-3 loop replaced by the Bgl II fragment of HIV-1 ADA, YU-2 or HxB (ADA-Luc-FL, YU-2-Luc-FL and HxB-Luc-FL) are obtained from Dr. Susan Pontow (Washington University, St. Louis Mo.). Replication-competent luciferase reporter virus stocks are generated by transfection of plasmids into 293T cells using Superfect (Qiagen) or Mirus transfection reagents. Viral stocks are collected 48 hours following transfection and titered for luciferase production on U-87-CCR5 or CXCR4 cells. U87-CD4-CCR5 cells (10^4/ well) are plated in 96-well cell culture plates and incubated overnight. Media is removed and replaced with 50 μl of fresh culture media (DMEM, 10% FCS) and 50 μl of compound diluted in culture medium. Cells are incubated with compound at 37° C. for 1 hour. The resultant supernatant is removed and replaced with 20 μl of media containing compound and infected with an equal volume of diluted or undiluted virus stock at 37° C. for 3-4 hours. The cells are washed once with DMEM, and 200 μl of media containing compound is added. The cultures are incubated for 3 days, the cells lysed in luciferase lysis buffer (Promega, Madison, Wis.) and transferred to Immulon plates (Dynex Technologies, Chantilly Va.). An equal volume of luciferase substrate (Promega, Madison Wis.) is added to lysates and the plates read immediately in a Wallac Luminometer. Fifty and ninety percent inhibitory concentrations are determined using GraphPad PRISM software.
Regarding `Cc1ncnc(C)c1C(=O)N1CCC(C)(N2CCN(C(Cc3ccccc3)C3CCCN(S(=O)(=O)C4CC4)C3)[C@@H](C)C2)CC1` (mixture of isomers) [Example 1], the IC50 came to 2 nM.
As to `COc1ccc(CN2CCCC(C(Cc3ccccc3)N3CCN(C4(C)CCN(C(=O)c5c(C)ncnc5C)CC4)C[C@@H]3C)C2)cc1` (mixture of isomers) [Example 2], the IC50 came out at 25 nM.
Same read-out and setting: in the case of `Cc1ncnc(C)c1C(=O)N1CCC(C)(N2CCN(C(Cc3ccccc3)C3CCCN(S(=O)(=O)c4cccc(Cl)c4)C3)[C@@H](C)C2)CC1` (mixture of isomers) [Example 3] it was 2 nM.
For the molecule `Cc1ncnc(C)c1C(=O)N1CCC(C)(N2CCN(C(Cc3ccccc3)C3CCCNC3)[C@@H](C)C2)CC1` (mixture of isomers) [Example 4], the 50% inhibitory concentration (IC50) was 4 nM.
In the case of `Cc1ncnc(C)c1C(=O)N1CCC(C)(N2CCN([C@@H](c3cccc(F)c3)C3CCN(S(=O)(=O)C4CC4)C3)[C@@H](C)C2)CC1` (mixture of isomers) [Example 11], the IC50 amounted to 0.3 nM.
The same measure, in the same setting: in the case of `Cc1ncnc(C)c1C(=O)N1CCC(C)(N2CCN(C(c3ccccc3)C3CCCN(S(C)(=O)=O)C3)[C@@H](C)C2)CC1` (stereo partly shown) [Example 7] it was 0.5 nM.
On the same count and under the same terms, in the case of `COc1ccc(CN2CCCC([C@H](c3ccccc3)N3CCN(C4(C)CCN(C(=O)c5c(C)ncnc5C)CC4)C[C@@H]3C)C2)cc1` (stereo partly shown) [Example 8] it was 1.6 nM; in that of `Cc1ncnc(C)c1C(=O)N1CCC(C)(N2CCN([C@@H](c3ccccc3)C3CCCNC3)[C@@H](C)C2)CC1` (stereo partly shown) [Example 9], 11 nM; in that of `Cc1ncnc(C)c1C(=O)N1CCC(C)(N2CCN(C(CC3CCN(S(=O)(=O)C4CC4)CC3)c3cccc(F)c3)[C@@H](C)C2)CC1` (stereo partly shown) [Example 10], 3 nM.
On to `Cc1ncnc(C)c1C(=O)N1CCC(C)(N2CCN([C@@H](c3cccc(F)c3)C3CN(S(=O)(=O)C4CC4)C3)[C@@H](C)C2)CC1` [Example 12], for which the IC50 was found to be 1 nM.
As to `Cc1ncnc(C)c1C(=O)N1CCC(C)(N2CCN([C@@H](c3cccc(F)c3)C3CN(S(=O)(=O)c4ccccc4)C3)[C@@H](C)C2)CC1` [Example 13], the concentration for half-maximal inhibition (IC50) came out at 0.7 nM.
The same measure, in the same setting: in the case of `Cc1ncnc(C)c1C(=O)N1CCC(C)(N2CCN([C@@H](c3cccc(F)c3)C3CN(S(C)(=O)=O)C3)[C@@H](C)C2)CC1` [Example 14] it was 2 nM; in that of `Cc1ncnc(C)c1C(=O)N1CCC(C)(N2CCN([C@@H](c3cccc(F)c3)C3CN(C(=O)C4CC4)C3)[C@@H](C)C2)CC1` [Example 15], 5 nM; in that of `Cc1ncnc(C)c1C(=O)N1CCC(C)(N2CCN([C@@H](Cc3ccccc3)C3CN(S(=O)(=O)C4CC4)C3)[C@@H](C)C2)CC1` [Example 16], 4 nM.
Same read-out and setting: with `Cc1ncnc(C)c1C(=O)N1CCC(C)(N2CCN([C@@H](Cc3ccccc3)C3CN(S(=O)(=O)c4ccccc4)C3)[C@@H](C)C2)CC1` [Example 17] the figure was 0.4 nM.
With `Cc1ncnc(C)c1C(=O)N1CCC(C)(N2CCN([C@@H](Cc3ccccc3)C3CN(S(C)(=O)=O)C3)[C@@H](C)C2)CC1` [Example 18], the IC50 stood at 17 nM.
On the same count and under the same terms, with `Cc1ncnc(C)c1C(=O)N1CCC(C)(N2CCN([C@@H](Cc3ccccc3)C3CN(C(=O)C4CC4)C3)[C@@H](C)C2)CC1` [Example 19] the figure was 13 nM.

The same assay, now with this note: read-out: HIV Replication (Luciferase) IC50 nM; U87-CD4-CCR5 cells, replication-competent luciferase reporter virus, cultures incubated 3 days.
As for `Cc1ncnc(C)c1C(=O)N1CCC(C)(N2CCN(C(c3ccccc3)C3CCCN(S(=O)(=O)C4CC4)C3)[C@@H](C)C2)CC1` (stereo partly shown) [Example 5], the IC50 came to 15 nM.
Still for that read-out and setting: with `Cc1ncnc(C)c1C(=O)N1CCC(C)(N2CCN(C(c3ccccc3)C3CCCN(S(=O)(=O)C4CC4)C3)[C@@H](C)C2)CC1` (stereo partly shown) [Example 6] the figure was 0.7 nM.
